According to the kinase profiling compilation of Christmann-Franck et al. (2016):

Key:
Experiment in all cases: KINOMEscan competition binding
Conditions in all cases: compound 10.0 µM
BTK (human) = BTK (human) (UniProt Q06187)
CASK (human) = CASK (human) (UniProt O14936)
CDK2 (human) = CDK2 (human) (UniProt P24941)
CDKL5 (human) = CDKL5 (human) (UniProt O76039)
[1] = test system: EGFR (human), P00533 [L861Q]
[2] = test system: EGFR (human), P00533 [P753S; 747-752 del]
EIF2AK1 (human) = EIF2AK1 (human) (UniProt Q9BQI3)
EPHB6 (human) = EPHB6 (human) (UniProt O15197)
GRK1 (human) = GRK1 (human) (UniProt Q15835)
Chain of GRK1 (human) (Q15835 whole entry, looked up): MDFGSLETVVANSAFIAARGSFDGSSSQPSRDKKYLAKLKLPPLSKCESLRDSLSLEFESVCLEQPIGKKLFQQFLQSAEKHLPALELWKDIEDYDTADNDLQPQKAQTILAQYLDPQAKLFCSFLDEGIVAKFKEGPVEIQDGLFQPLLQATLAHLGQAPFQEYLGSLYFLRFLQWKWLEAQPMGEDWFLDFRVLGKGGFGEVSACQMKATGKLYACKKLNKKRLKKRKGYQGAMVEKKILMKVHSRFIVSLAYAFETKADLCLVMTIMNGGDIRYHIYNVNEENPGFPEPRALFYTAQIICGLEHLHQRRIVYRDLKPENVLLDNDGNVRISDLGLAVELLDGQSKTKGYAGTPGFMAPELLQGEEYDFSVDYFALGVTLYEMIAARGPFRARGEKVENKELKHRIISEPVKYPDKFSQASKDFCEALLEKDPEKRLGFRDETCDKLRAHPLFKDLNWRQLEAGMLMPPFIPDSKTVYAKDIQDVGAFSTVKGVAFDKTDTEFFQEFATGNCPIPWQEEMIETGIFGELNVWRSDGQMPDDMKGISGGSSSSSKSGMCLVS

GRK4 (human) = GRK4 (human) (UniProt P32298)
HIPK2 (human) = HIPK2 (human) (UniProt Q9H2X6)
HIPK3 (human) = HIPK3 (human) (UniProt Q9H422)
HUNK (human) = HUNK (human) (UniProt P57058)
IRAK1 (human) = IRAK1 (human) (UniProt P51617)
IRAK4 (human) = IRAK4 (human) (UniProt Q9NWZ3)
[3] = test system: KIT (human), P10721 [V559D/T670I]
LRRK2 (human) = LRRK2 (human) (UniProt Q5S007)
MAP2K5 (human) = MAP2K5 (human) (UniProt Q13163)
Chain of MAP2K5 (human) (Q13163 whole entry, looked up): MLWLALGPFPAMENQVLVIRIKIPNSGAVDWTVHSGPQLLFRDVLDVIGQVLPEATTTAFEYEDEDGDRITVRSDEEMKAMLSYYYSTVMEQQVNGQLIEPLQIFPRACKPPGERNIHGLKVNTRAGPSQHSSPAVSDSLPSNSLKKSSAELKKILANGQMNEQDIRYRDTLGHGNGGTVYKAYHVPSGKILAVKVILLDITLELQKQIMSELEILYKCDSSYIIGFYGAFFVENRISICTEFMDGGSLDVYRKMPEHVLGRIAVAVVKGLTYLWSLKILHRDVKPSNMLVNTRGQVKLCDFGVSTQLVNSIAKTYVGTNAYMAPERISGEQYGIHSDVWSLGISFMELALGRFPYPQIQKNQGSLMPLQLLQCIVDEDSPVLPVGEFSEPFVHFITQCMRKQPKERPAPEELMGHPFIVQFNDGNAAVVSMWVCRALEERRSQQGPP

MAP3K1 (human) = MAP3K1 (human) (UniProt Q13233)
Chain of MAP3K1 (human) (Q13233 whole entry, looked up): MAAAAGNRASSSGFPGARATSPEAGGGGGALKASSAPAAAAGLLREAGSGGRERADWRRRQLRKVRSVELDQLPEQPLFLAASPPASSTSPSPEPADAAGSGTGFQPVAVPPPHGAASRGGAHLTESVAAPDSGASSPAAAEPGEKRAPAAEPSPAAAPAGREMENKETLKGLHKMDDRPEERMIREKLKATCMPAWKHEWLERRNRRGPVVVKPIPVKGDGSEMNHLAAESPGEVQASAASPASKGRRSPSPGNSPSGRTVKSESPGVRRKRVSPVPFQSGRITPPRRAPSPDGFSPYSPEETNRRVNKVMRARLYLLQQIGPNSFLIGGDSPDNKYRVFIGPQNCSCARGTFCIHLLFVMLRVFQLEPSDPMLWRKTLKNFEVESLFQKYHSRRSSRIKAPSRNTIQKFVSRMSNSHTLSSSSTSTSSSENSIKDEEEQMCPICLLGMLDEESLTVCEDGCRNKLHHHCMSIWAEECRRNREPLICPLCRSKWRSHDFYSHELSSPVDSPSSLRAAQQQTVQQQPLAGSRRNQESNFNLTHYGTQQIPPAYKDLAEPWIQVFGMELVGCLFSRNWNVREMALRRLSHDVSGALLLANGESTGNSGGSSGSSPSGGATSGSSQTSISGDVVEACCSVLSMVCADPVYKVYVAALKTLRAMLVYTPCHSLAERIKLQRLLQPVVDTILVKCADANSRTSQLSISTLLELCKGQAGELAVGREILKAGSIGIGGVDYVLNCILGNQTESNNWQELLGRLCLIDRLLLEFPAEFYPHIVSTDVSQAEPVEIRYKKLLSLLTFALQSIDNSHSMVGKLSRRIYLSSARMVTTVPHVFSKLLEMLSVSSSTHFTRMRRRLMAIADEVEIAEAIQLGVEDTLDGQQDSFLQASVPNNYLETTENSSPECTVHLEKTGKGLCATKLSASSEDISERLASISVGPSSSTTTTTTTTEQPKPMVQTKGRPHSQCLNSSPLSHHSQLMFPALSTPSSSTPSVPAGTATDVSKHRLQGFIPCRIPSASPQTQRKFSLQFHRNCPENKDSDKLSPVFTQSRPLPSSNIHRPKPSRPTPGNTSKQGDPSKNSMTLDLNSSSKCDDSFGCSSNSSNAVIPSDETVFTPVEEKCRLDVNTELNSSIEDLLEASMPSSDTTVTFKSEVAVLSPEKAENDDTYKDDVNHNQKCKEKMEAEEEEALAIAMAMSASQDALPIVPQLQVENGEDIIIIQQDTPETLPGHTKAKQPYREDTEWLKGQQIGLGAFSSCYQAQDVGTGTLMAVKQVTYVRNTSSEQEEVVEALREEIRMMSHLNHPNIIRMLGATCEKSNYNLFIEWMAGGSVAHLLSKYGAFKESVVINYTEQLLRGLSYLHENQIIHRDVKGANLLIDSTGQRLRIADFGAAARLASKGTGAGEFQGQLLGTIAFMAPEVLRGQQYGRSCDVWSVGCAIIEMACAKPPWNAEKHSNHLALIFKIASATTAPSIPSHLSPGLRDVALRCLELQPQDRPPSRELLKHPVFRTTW

MAP3K15 (human) = MAP3K15 (human) (UniProt Q6ZN16)
MAP3K2 (human) = MAP3K2 (human) (UniProt Q9Y2U5)
MATK (human) = MATK (human) (UniProt P42679)
MET (human) = MET (human) (UniProt P08581)
MTOR (human) = MTOR (human) (UniProt P42345)
MYLK3 (human) = MYLK3 (human) (UniProt Q32MK0)
NEK11 (human) = NEK11 (human) (UniProt Q8NG66)
NEK4 (human) = NEK4 (human) (UniProt P51957)
[4] = test system: PIK3CA (human), P42336 [E545A]
Chain of PIK3CA (human), P42336 [E545A] (P42336 whole entry E545A, looked up): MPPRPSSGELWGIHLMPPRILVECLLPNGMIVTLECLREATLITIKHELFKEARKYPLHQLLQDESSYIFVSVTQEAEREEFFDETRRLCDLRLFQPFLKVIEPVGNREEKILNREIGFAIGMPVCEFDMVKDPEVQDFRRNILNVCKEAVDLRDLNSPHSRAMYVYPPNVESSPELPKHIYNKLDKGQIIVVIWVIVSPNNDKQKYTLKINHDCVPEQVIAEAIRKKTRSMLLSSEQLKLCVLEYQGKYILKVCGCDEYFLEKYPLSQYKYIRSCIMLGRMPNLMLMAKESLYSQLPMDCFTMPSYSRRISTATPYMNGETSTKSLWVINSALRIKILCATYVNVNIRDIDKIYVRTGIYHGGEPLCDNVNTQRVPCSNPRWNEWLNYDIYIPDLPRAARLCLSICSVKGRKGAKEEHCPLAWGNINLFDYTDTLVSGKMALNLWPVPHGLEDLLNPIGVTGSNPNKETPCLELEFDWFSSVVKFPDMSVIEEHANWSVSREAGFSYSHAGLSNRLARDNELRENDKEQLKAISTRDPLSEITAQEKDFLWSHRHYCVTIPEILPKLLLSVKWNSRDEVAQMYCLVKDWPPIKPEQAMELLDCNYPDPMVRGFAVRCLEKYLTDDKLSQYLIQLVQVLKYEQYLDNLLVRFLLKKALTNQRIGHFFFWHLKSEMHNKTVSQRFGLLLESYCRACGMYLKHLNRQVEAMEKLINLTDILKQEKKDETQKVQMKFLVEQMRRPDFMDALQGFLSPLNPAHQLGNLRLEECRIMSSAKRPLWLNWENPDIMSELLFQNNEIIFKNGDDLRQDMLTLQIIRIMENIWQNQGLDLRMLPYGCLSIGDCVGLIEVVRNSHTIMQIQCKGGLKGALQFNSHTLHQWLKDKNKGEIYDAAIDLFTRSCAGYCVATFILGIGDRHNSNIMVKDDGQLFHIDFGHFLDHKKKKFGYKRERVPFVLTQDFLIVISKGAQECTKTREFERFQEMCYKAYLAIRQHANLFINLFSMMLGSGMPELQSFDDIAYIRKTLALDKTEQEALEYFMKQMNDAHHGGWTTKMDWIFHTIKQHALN

[5] = test system: PIK3CA (human), P42336 [I800L]
Chain of PIK3CA (human), P42336 [I800L] (P42336 whole entry I800L, looked up): as the sequence (P42336 whole entry E545A, looked up) above, with A545E, I800L counted along it

PKN3 (M.tuberculosis) = PKN3 (M.tuberculosis) (UniProt Q6P5Z2)
PLK2 (human) = PLK2 (human) (UniProt Q9NYY3)
PRPF4B (human) = PRPF4B (human) (UniProt Q13523)
ROCK1 (human) = ROCK1 (human) (UniProt Q13464)
SIK3 (human) = SIK3 (human) (UniProt Q9Y2K2)
Chain of SIK3 (human) (Q9Y2K2 whole entry, looked up): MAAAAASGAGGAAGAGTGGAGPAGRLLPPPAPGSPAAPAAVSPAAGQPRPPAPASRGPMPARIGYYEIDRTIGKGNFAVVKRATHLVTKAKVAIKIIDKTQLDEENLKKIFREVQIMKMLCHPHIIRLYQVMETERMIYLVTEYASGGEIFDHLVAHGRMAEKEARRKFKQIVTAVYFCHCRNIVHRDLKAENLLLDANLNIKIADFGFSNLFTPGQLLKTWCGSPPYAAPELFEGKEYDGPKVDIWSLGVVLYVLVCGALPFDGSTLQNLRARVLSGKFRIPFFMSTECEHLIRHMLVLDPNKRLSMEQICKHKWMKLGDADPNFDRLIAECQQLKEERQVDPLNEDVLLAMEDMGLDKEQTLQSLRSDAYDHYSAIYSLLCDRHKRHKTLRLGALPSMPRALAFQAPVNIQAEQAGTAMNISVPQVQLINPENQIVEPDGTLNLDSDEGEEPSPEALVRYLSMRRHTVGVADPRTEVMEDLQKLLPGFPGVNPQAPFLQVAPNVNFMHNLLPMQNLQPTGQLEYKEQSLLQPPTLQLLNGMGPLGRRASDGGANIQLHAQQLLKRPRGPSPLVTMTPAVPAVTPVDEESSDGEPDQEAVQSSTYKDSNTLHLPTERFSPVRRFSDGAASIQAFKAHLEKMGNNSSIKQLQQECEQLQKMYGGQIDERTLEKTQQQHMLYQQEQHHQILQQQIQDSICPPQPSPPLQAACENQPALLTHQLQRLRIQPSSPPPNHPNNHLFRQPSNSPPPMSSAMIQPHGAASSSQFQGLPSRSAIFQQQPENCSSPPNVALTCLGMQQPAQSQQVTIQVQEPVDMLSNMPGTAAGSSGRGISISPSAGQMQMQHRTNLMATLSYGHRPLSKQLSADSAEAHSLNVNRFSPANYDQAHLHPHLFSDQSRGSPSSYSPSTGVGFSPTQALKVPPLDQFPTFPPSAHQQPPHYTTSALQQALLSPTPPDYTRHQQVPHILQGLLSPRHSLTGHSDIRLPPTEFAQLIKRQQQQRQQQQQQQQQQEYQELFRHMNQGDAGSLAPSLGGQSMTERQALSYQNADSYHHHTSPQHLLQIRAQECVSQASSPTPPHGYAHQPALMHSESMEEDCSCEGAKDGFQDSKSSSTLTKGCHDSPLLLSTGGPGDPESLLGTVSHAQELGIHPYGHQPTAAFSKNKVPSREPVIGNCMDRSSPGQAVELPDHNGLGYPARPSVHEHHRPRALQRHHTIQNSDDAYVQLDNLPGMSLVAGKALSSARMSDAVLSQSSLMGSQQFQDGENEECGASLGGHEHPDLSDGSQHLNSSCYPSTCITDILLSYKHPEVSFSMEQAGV

SNRK (human) = SNRK (human) (UniProt Q9NRH2)
STK38 (human) = STK38 (human) (UniProt Q15208)
TAOK2 (human) = TAOK2 (human) (UniProt Q9UL54)
TBK1 (human) = TBK1 (human) (UniProt Q9UHD2)
TRPM6 (human) = TRPM6 (human) (UniProt Q9BX84)
VRK2 (human) = VRK2 (human) (UniProt Q86Y07)

Compound	kinase still bound, per cent of control (BTK (human))	kinase still bound, per cent of control (CASK (human))	kinase still bound, per cent of control (CDK2 (human))	kinase still bound, per cent of control (CDKL5 (human))	kinase still bound, per cent of control [1]	kinase still bound, per cent of control [2]	kinase still bound, per cent of control (EIF2AK1 (human))	kinase still bound, per cent of control (EPHB6 (human))	kinase still bound, per cent of control (GRK1 (human))	kinase still bound, per cent of control (GRK4 (human))	kinase still bound, per cent of control (HIPK2 (human))	kinase still bound, per cent of control (HIPK3 (human))	kinase still bound, per cent of control (HUNK (human))	kinase still bound, per cent of control (IRAK1 (human))	kinase still bound, per cent of control (IRAK4 (human))	kinase still bound, per cent of control [3]	kinase still bound, per cent of control (LRRK2 (human))	kinase still bound, per cent of control (MAP2K5 (human))	kinase still bound, per cent of control (MAP3K1 (human))	kinase still bound, per cent of control (MAP3K15 (human))	also measured
C[C@@H](Oc1cc(-n2cnc3ccc(CN4CCN(C)CC4)cc32)sc1C(N)=O)c1ccccc1C(F)(F)F	100%	50%	85%	31%	100%	97%	94%	59%	50%	16%	36%	37%	78%	23%	43%	37%	60%	43%	3.7%	24%	kinase still bound, per cent of control (MAP3K2 (human)): 100%; kinase still bound, per cent of control (MATK (human)): 52%; kinase still bound, per cent of control (MET (human)): 76%; kinase still bound, per cent of control (MTOR (human)): 55%; kinase still bound, per cent of control (MYLK3 (human)): 100%; kinase still bound, per cent of control (NEK11 (human)): 100%; kinase still bound, per cent of control (NEK4 (human)): 69%; kinase still bound, per cent of control [4]: 40%; kinase still bound, per cent of control [5]: 24%; kinase still bound, per cent of control (PKN3 (M.tuberculosis)): 27%; kinase still bound, per cent of control (PLK2 (human)): 2.6%; kinase still bound, per cent of control (PRPF4B (human)): 39%; kinase still bound, per cent of control (ROCK1 (human)): 7.9%; kinase still bound, per cent of control (SIK3 (human)): 69%; kinase still bound, per cent of control (SNRK (human)): 100%; kinase still bound, per cent of control (STK38 (human)): 71%; kinase still bound, per cent of control (TAOK2 (human)): 94%; kinase still bound, per cent of control (TBK1 (human)): 84%; kinase still bound, per cent of control (TRPM6 (human)): 100%; kinase still bound, per cent of control (VRK2 (human)): 100%
O=C1Nc2ccc(I)cc2/C1=C/c1cc(Br)c(O)c(Br)c1	99%	74%	97%	92%	55%	50%	57%	24%	92%	21%	7.6%	8%	2.8%	100%	90%	23%	11%	56%	84%	80%	kinase still bound, per cent of control (MAP3K2 (human)): 100%; kinase still bound, per cent of control (MATK (human)): 100%; kinase still bound, per cent of control (MET (human)): 100%; kinase still bound, per cent of control (MTOR (human)): 95%; kinase still bound, per cent of control (MYLK3 (human)): 10%; kinase still bound, per cent of control (NEK11 (human)): 100%; kinase still bound, per cent of control (NEK4 (human)): 93%; kinase still bound, per cent of control [4]: 86%; kinase still bound, per cent of control [5]: 61%; kinase still bound, per cent of control (PKN3 (M.tuberculosis)): 64%; kinase still bound, per cent of control (PLK2 (human)): 71%; kinase still bound, per cent of control (PRPF4B (human)): 50%; kinase still bound, per cent of control (ROCK1 (human)): 80%; kinase still bound, per cent of control (SIK3 (human)): 100%; kinase still bound, per cent of control (SNRK (human)): 99%; kinase still bound, per cent of control (STK38 (human)): 64%; kinase still bound, per cent of control (TAOK2 (human)): 71%; kinase still bound, per cent of control (TBK1 (human)): 95%; kinase still bound, per cent of control (TRPM6 (human)): 100%; kinase still bound, per cent of control (VRK2 (human)): 82%
